According to article PMC5428509, “Irreversible inhibition of BTK kinase by a novel highly selective inhibitor CHMFL-BTK-11 suppresses inflammatory response in rheumatoid arthritis model” (Scientific Reports, 2017):

Legend:
Assay in all cases: biochemical
Set-up in all cases: KinomeScan competition binding panel (DiscoveRx), percent of control at 1 uM
Conditions in all cases: read-out: Percent Control
PAK2 = PAK2 (Homo sapiens, UniProt Q13177)
Method in brief: (§1)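 KinomeScan technology used to profile binding across a panel of 456 kinases and mutants.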

MYO3B = MYO3B (Homo sapiens, UniProt Q8WXR4)
Method in brief: as §1

PIK3CA(E545K) = PIK3CA(E545K) (Homo sapiens, UniProt P42336, E545K)
Method in brief: as §1

BMPR2 = BMPR2 (Homo sapiens, UniProt Q13873)
Method in brief: as §1

SRPK1 = SRPK1 (Homo sapiens, UniProt Q96SB4)
Method in brief: as §1

MET(M1250T) = MET(M1250T) (Homo sapiens, UniProt P08581, M1250T)
Method in brief: as §1

RIOK3 = RIOK3 (Homo sapiens, UniProt O14730)
Method in brief: as §1

PRKCH = PRKCH (Homo sapiens, UniProt P24723)
Method in brief: as §1

[1] = target: T1, RPS6KA4(Kin.Dom.2-C-terminal) (Homo sapiens, UniProt O75676)
T1 construct: Kin.Dom.2-C-terminal
Method in brief: as §1

PIM1 = PIM1 (Homo sapiens, UniProt P11309)
Method in brief: as §1

CDC2L5 = target: T2, CDC2L5 (Homo sapiens, UniProt Q14004)
T2 construct: gene CDK13
Method in brief: as §1

KIT(A829P) = KIT(A829P) (Homo sapiens, UniProt P10721, A829P)
Method in brief: as §1

DAPK3 = DAPK3 (Homo sapiens, UniProt O43293)
Method in brief: as §1

DCAMKL1 = target: T3, DCAMKL1 (Homo sapiens, UniProt O15075)
T3 construct: gene DCLK1
Method in brief: as §1

CHEK1 = CHEK1 (Homo sapiens, UniProt O14757)
Method in brief: as §1

S6K1 = target: T4, S6K1 (Homo sapiens, UniProt P23443)
T4 construct: gene RPS6KB1
Method in brief: as §1

PDGFRB = PDGFRB (Homo sapiens, UniProt P09619)
Method in brief: as §1

NDR1 = target: T5, NDR1 (Homo sapiens, UniProt Q15208)
T5 construct: gene STK38
Method in brief: as §1

DMPK = DMPK (Homo sapiens, UniProt Q09013)
Method in brief: as §1

ACVRL1 = ACVRL1 (Homo sapiens, UniProt P37023)
Method in brief: as §1

EGFR(G719S) = EGFR(G719S) (Homo sapiens, UniProt P00533, G719S)
Method in brief: as §1

EPHB4 = EPHB4 (Homo sapiens, UniProt P54760)
Method in brief: as §1

PIP5K1C = PIP5K1C (Homo sapiens, UniProt O60331)
Method in brief: as §1

INSRR = INSRR (Homo sapiens, UniProt P14616)
Method in brief: as §1

ROCK1 = ROCK1 (Homo sapiens, UniProt Q13464)
Method in brief: as §1

Sequence of DMPK (Q09013 whole entry): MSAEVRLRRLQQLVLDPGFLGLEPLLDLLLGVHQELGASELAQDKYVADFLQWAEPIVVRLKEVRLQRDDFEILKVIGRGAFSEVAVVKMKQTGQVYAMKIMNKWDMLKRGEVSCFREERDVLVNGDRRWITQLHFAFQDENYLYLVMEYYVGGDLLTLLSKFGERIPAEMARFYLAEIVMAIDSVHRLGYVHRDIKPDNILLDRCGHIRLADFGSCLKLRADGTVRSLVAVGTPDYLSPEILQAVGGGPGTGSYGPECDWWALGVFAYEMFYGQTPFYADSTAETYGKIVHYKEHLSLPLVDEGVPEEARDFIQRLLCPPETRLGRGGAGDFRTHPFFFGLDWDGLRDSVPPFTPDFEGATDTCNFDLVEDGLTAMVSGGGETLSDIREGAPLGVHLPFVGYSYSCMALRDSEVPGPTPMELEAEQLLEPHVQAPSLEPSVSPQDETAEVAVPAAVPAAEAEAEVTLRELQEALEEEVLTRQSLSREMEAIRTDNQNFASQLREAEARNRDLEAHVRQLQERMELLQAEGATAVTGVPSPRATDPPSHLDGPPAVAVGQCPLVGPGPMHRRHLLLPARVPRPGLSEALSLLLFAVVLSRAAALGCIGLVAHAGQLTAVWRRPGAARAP
Sequence of RIOK3 (O14730 whole entry): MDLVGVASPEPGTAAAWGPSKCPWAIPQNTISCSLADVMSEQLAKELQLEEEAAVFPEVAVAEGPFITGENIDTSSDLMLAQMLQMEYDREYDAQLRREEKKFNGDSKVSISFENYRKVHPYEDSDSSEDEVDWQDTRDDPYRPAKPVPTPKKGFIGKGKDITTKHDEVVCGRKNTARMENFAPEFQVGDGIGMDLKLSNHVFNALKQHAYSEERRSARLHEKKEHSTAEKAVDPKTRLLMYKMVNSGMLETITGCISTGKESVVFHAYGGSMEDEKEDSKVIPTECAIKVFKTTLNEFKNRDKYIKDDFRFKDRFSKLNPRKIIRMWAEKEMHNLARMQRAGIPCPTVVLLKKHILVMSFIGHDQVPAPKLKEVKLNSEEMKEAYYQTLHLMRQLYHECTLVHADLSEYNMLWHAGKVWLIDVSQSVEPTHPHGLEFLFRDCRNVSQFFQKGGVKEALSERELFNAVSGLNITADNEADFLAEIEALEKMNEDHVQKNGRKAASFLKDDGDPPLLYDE
Sequence of INSRR (P14616 whole entry): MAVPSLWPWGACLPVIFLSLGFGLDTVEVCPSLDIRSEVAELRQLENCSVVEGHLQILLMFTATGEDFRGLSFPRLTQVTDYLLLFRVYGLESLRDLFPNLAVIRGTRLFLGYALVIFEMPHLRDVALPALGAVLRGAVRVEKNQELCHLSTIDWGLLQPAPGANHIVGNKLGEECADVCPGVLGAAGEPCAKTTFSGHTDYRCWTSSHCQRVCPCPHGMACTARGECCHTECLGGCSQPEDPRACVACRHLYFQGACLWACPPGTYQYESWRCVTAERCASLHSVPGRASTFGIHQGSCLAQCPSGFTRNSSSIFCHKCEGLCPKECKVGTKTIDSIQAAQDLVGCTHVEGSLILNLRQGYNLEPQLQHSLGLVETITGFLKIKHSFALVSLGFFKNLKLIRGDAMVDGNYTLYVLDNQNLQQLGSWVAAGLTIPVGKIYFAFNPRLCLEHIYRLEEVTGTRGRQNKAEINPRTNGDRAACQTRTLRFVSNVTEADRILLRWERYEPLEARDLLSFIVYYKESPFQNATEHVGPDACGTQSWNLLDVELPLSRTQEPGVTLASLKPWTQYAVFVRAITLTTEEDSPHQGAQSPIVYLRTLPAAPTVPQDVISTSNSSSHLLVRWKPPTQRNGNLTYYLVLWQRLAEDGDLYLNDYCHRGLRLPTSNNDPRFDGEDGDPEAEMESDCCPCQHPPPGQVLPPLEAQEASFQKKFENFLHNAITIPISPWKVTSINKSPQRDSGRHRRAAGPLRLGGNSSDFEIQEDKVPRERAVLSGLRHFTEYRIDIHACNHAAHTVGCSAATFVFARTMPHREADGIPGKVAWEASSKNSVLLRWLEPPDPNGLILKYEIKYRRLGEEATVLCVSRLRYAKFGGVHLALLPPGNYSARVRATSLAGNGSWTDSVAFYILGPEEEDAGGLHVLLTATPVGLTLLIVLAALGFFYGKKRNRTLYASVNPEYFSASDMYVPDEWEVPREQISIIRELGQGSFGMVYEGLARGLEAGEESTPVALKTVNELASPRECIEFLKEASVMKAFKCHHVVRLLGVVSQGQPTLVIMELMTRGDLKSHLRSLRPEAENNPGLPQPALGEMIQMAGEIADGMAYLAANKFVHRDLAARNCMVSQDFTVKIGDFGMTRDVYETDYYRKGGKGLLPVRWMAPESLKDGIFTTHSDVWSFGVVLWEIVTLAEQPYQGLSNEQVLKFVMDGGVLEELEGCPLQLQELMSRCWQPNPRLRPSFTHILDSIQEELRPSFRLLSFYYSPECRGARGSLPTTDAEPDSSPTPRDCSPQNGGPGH
Sequence of PDGFRB (P09619 whole entry): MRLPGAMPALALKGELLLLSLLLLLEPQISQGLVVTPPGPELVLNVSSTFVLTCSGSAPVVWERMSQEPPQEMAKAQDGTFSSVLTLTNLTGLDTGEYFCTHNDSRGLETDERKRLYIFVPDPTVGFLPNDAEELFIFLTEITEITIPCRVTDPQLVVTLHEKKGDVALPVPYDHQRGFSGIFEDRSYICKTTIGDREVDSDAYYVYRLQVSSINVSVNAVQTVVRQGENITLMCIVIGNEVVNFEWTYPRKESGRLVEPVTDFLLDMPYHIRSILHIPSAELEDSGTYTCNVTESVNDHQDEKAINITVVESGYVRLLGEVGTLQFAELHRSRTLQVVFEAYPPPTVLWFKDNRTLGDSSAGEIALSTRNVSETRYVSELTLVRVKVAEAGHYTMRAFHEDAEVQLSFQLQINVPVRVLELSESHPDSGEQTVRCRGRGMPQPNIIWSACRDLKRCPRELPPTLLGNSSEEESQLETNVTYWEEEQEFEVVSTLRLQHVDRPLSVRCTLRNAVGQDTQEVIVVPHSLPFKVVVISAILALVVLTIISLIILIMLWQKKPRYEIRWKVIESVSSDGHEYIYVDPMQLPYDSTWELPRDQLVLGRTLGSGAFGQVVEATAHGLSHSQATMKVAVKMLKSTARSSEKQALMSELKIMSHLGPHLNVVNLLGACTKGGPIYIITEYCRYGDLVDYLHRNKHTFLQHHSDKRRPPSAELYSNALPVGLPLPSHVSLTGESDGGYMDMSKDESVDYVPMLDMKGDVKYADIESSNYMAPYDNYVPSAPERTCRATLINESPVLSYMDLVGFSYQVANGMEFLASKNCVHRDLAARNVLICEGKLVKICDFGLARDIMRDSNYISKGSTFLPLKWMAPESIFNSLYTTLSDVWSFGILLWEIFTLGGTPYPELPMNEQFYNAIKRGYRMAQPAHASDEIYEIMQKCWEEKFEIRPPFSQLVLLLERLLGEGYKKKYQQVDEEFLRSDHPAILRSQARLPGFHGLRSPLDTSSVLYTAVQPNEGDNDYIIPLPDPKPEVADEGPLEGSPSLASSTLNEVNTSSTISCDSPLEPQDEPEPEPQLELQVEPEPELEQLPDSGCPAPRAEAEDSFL
Sequence of ROCK1 (Q13464 whole entry): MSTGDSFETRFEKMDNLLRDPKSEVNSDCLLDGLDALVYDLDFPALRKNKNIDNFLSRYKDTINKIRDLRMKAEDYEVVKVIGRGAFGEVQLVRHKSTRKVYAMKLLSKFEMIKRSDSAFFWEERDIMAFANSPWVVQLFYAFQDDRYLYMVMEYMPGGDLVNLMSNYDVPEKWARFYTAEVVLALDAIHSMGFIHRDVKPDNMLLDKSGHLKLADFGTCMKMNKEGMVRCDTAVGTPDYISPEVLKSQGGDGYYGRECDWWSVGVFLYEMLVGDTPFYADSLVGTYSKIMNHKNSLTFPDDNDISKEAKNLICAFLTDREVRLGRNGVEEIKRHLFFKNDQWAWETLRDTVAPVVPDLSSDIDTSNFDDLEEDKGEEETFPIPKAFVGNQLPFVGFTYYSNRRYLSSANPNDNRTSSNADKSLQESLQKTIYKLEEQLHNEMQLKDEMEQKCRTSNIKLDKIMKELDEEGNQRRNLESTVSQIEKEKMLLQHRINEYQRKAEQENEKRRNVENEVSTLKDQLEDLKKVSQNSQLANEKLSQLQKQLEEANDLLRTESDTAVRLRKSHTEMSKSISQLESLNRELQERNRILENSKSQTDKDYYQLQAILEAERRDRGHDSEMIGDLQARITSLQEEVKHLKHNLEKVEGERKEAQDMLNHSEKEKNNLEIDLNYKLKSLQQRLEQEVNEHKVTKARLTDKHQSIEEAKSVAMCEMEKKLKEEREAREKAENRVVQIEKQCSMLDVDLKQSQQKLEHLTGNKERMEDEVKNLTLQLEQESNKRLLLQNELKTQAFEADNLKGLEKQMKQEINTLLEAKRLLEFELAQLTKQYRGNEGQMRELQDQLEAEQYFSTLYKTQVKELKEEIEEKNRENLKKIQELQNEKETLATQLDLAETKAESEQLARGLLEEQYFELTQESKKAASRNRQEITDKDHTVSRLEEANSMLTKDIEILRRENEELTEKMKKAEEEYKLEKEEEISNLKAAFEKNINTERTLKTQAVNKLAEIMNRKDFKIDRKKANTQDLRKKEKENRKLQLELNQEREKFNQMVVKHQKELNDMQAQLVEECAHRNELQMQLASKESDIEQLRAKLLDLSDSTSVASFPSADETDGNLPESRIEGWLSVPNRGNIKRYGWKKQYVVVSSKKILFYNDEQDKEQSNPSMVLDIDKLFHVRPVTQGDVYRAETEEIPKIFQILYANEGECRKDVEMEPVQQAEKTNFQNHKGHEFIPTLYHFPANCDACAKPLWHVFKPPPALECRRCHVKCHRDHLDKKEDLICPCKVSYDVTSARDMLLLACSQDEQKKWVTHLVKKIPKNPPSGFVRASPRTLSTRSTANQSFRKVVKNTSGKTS

`C=CC(=O)Nc1cc(-n2c(=O)ccc3cnc4ccc(-n5cccn5)cc4c32)ccc1C` [CHMFL-BTK-11] showed a remaining binding at 1 µM (PAK2) of 99%, a remaining binding at 1 µM (MYO3B) of 90% and a remaining binding at 1 µM (PIK3CA(E545K)) of 69%. The remaining binding at 1 µM (BMPR2) was 100%, the remaining binding at 1 µM (SRPK1) was 100% and the remaining binding at 1 µM (MET(M1250T)) was 100%. The remaining binding at 1 µM (RIOK3) was 80%, the remaining binding at 1 µM (PRKCH) was 84% and the remaining binding at 1 µM [1] was 100%. It also gave a remaining binding at 1 µM (PIM1) of 82%, a remaining binding at 1 µM (CDC2L5) of 98% and a remaining binding at 1 µM (KIT(A829P)) of 98%. The remaining binding at 1 µM (DAPK3) was 100%, the remaining binding at 1 µM (DCAMKL1) was 91% and the remaining binding at 1 µM (CHEK1) was 100%. For the same compound, the remaining binding at 1 µM (S6K1) was 100%, the remaining binding at 1 µM (PDGFRB) was 100% and the remaining binding at 1 µM (NDR1) was 68%. The remaining binding at 1 µM (DMPK) was 100%, the remaining binding at 1 µM (ACVRL1) was 90% and the remaining binding at 1 µM (EGFR(G719S)) was 88%. For the same compound, the remaining binding at 1 µM (EPHB4) was 100%, the remaining binding at 1 µM (PIP5K1C) was 82% and the remaining binding at 1 µM (INSRR) was 100%. For the same compound, the remaining binding at 1 µM (ROCK1) was 89%.
